Experimental data published in patent publication US11046716B2, “Beta-lactamase inhibitors” (priority 2015, dated 2021).

Assays:
[1] = system: K. pneumoniae producing the Class D carbapenemase OXA-48; assay: Broth microdilution MIC assay with meropenem, K. pneumoniae OXA-48; assay type: cell-based; conditions: Fixed Mero (meropenem) 4 μg/mL; K. p. 11978 OXA-48
Procedure, shortened: (§1)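 CLSI broth microdilution in cation-adjusted Mueller Hinton broth measured growth of β-lactamase-expressing strains, grown 3-5 h beforehand. The β-lactam partner was held at 4 μg/ml final while test compound was titrated 2-fold from 16 to 0.125 μg/mL final. After 16-20 h at 37° C, the compound MIC was determined by eye.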

SHV-5 = target: T1, SHV-5 (Klebsiella pneumoniae, UniProt P0A3M1); assay: β-lactamase enzyme inhibition assay, SHV-5 (cefotaxime substrate); assay type: biochemical
T1 construct: made in house; host or cells: E. coli BL21(DE3)
Procedure, shortened: (§2)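 Compounds are mixed with purified, untagged recombinant β-lactamase and held 15 min at 37 °C. Substrate is then added: nitrocefin (100 μM final) for OXA-1, imipenem for KPC-2, cefotaxime for SHV-5. Absorbance is followed immediately, and percent inhibition per concentration gives the IC50.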

KPC-2 = target: T2, KPC-2 (Klebsiella pneumoniae, UniProt Q9F663); assay: β-lactamase enzyme inhibition assay, KPC-2 (imipenem substrate); assay type: biochemical; conditions: Class A; imipenem substrate, 300 nm; read-out: KPC-2
T2 construct: made in house; host or cells: E. coli BL21(DE3)
Procedure, shortened: as §2

[2] = system: E. cloacae expressing the Class C P99; assay: Broth microdilution MIC assay with ceftazidime, E. cloacae P99; assay type: cell-based; conditions: Fixed CAZ (ceftazidime) 4 μg/mL; E. cl. 144200 p99 AmpC
Procedure, shortened: as §1

[3] = system: P. aeruginosa expressing the Class B carbapenemase VIM-2; assay: Broth microdilution MIC assay with meropenem, P. aeruginosa VIM-2; assay type: cell-based; conditions: Fixed Mero (meropenem) 4 μg/mL; P. aerug. 2775 VIM-2
Procedure, shortened: as §1

AmpC = target: T3, AmpC (Enterobacter cloacae, UniProt P05364); assay: β-lactamase enzyme inhibition assay, p99 AmpC (nitrocefin substrate); assay type: biochemical
T3 construct: made in house; host or cells: E. coli BL21(DE3)
Procedure, shortened: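 Compounds are mixed with purified, untagged recombinant β-lactamase and held 15 min at 37 °C. Substrate is then added. Absorbance is followed immediately, and percent inhibition per concentration gives the IC50.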

OXA-48 = OXA-48 (UniProt Q6XEC0); assay: β-lactamase enzyme inhibition assay, Class D oxacillinase; assay type: biochemical; conditions: read-out: OXA-48
VIM-2 = target: T4, VIM-2 (Escherichia coli, UniProt Q5U7L7); assay: β-lactamase enzyme inhibition assay, VIM-2 (nitrocefin substrate); assay type: biochemical; conditions: Class B; nitrocefin substrate, 486 nm; read-out: VIM-2
T4 construct: made in house; host or cells: E. coli BL21(DE3)
Procedure, shortened: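 Nitrocefin hydrolysis (100 μM final, A486 read for 10 min) by purified VIM-2 after a 15-min, 37° C enzyme–inhibitor preincubation. IC50 is the concentration halving initial hydrolysis rate, derived from percent inhibition against no-inhibitor wells.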

[4] = system: E. coli expressing the Class A Extended Spectrum Beta-Lactamase (ESBL) CTX-M-15; assay: Broth microdilution MIC assay with ceftazidime, E. coli CTX-M-15; assay type: cell-based; conditions: Fixed CAZ (ceftazidime) 4 μg/mL; E. coli ESBL4 CTX-M-15
Procedure, shortened: as §1

[5] = system: K. pneumoniae expressing the Class A carbapenemase KPC-2; assay: Broth microdilution MIC assay with meropenem, K. pneumoniae KPC-2; assay type: cell-based; conditions: Fixed Mero (meropenem) 4 μg/mL; K. p. 156319 KPC-3
Procedure, shortened: as §1

[6] = system: K. pneumoniae expressing the class A carbapenemase KPC-2 and the class B carbapenemase VIM-4; assay: Broth microdilution MIC assay with meropenem, K. pneumoniae KPC-2 and VIM-4; assay type: cell-based; conditions: Fixed Mero (meropenem) 4 μg/mL; K. p. A-1797 KPC-2 VIM-4
Procedure, shortened: as §1

T2 sequence (Q9F663 25-293, looked up): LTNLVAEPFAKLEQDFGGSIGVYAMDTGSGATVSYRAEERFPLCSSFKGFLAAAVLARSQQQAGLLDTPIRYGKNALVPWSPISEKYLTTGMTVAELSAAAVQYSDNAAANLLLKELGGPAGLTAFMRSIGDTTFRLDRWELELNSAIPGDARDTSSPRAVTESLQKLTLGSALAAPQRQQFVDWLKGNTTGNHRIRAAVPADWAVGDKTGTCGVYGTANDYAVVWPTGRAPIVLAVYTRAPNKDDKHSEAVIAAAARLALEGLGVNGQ
T3 sequence (P05364 21-381): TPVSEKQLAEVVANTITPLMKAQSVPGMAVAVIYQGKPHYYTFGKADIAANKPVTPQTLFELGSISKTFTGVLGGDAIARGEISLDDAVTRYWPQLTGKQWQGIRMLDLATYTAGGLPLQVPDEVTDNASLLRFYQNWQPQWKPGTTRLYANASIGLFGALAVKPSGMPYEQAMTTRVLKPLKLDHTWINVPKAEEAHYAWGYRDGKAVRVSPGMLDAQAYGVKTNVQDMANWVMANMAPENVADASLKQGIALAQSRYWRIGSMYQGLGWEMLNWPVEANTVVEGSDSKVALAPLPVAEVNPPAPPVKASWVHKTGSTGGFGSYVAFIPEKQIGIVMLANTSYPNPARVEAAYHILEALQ
T1 sequence (P0A3M1 22-286): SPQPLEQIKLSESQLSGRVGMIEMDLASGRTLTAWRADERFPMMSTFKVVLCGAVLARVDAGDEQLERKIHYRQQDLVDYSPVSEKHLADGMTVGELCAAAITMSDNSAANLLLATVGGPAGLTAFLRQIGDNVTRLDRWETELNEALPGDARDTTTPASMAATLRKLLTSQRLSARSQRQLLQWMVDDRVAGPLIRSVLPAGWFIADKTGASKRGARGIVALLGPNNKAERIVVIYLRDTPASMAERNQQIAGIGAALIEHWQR

| Structure (SMILES) | MIC (μg/mL) of Exemplary Compounds in presence of fixed β-lactams: K. p. 11978 OXA-48 [1] | IC50 (SHV-5) [nM] | IC50 (KPC-2) [nM] | MIC (μg/mL) of Exemplary Compounds in presence of fixed β-lactams: E. cl. 144200 p99 AmpC [2] | MIC (μg/mL) of Exemplary Compounds in presence of fixed β-lactams: P. aerug. 2775 VIM-2 [3] | IC50 (AmpC) [nM] | IC50 (OXA-48) [nM] | IC50 (VIM-2) [nM] | MIC (μg/mL) of Exemplary Compounds in presence of fixed β-lactams: E. coli ESBL4 CTX-M-15 [4] | MIC (μg/mL) of Exemplary Compounds in presence of fixed β-lactams: K. p. 156319 KPC-3 [5] | MIC (μg/mL) of Exemplary Compounds in presence of fixed β-lactams: K. p. A-1797 KPC-2 VIM-4 [6] |
| --- | --- | --- | --- | --- | --- | --- | --- | --- | --- | --- | --- |
| NCCSCc1cn(CC(=O)N[C@H]2Cc3cccc(C(=O)O)c3OB2O)nn1 [Example 63, (R)-3-(2-(4-(((2-aminoethyl)thio)methyl)-1H-1,2,3-triazol-1-yl)acetamido)-2-hydroxy-3,4-dihydro-2H-benzo[e][1,2]oxaborinine-8-carboxylic acid] | B (B represents an MIC between 1 and 16 μg/mL inclusive) | < 100 | < 100 | C (C represents an MIC of <1 μg/mL) | C (C represents an MIC of <1 μg/mL) | < 100 | 100 to 1000 | 100 to 1000 | C (C represents an MIC of <1 μg/mL) | C (C represents an MIC of <1 μg/mL) | B (B represents an MIC between 1 and 16 μg/mL inclusive) |
| Nc1nc(=O)c(Cc2cn(CC(=O)N[C@H]3Cc4cccc(C(=O)O)c4OB3O)nn2)c(N)[nH]1 [Example 64, (R)-3-(2-(4-((2,6-diamino-4-oxo-1,4-dihydropyrimidin-5-yl)methyl)-1H-1,2,3-triazol-1-yl)acetamido)-2-hydroxy-3,4-dihydro-2H-benzo[e][1,2]oxaborinine-8-carboxylic acid] | B (B represents an MIC between 1 and 16 μg/mL inclusive) | < 100 | < 100 | C (C represents an MIC of <1 μg/mL) | B (B represents an MIC between 1 and 16 μg/mL inclusive) | < 100 | < 100 | 100 to 1000 | C (C represents an MIC of <1 μg/mL) | C (C represents an MIC of <1 μg/mL) | B (B represents an MIC between 1 and 16 μg/mL inclusive) |
| NCCCNC(=O)c1cn(CC(=O)N[C@H]2Cc3cccc(C(=O)O)c3OB2O)nn1 [Example 65, (R)-3-(2-(4-((3-aminopropyl)carbamoyl)-1H-1,2,3-triazol-1-yl)acetamido)-2-hydroxy-3,4-dihydro-2H-benzo[e][1,2]oxaborinine-8-carboxylic acid] | B (B represents an MIC between 1 and 16 μg/mL inclusive) | < 100 | < 100 | C (C represents an MIC of <1 μg/mL) | B (B represents an MIC between 1 and 16 μg/mL inclusive) | < 100 | 100 to 1000 | < 100 | C (C represents an MIC of <1 μg/mL) | C (C represents an MIC of <1 μg/mL) | B (B represents an MIC between 1 and 16 μg/mL inclusive) |
| N[C@H]1CCN(C(=O)c2cn(CC(=O)N[C@H]3Cc4cccc(C(=O)O)c4OB3O)nn2)C1 [Example 66, (R)-3-(2-(4-((S)-3-aminopyrrolidine-1-carbonyl)-1H-1,2,3-triazol-1-yl)acetamido)-2-hydroxy-3,4-dihydro-2H-benzo[e][1,2]oxaborinine-8-carboxylic acid] | B (B represents an MIC between 1 and 16 μg/mL inclusive) | < 100 | < 100 | C (C represents an MIC of <1 μg/mL) | C (C represents an MIC of <1 μg/mL) | < 100 | 100 to 1000 | < 100 | C (C represents an MIC of <1 μg/mL) | C (C represents an MIC of <1 μg/mL) | B (B represents an MIC between 1 and 16 μg/mL inclusive) |
| NCc1nnc(CC(=O)N[C@H]2Cc3cccc(C(=O)O)c3OB2O)s1 [Example 67, (R)-3-(2-(5-(aminomethyl)-1,3,4-thiadiazol-2-yl)acetamido)-2-hydroxy-3,4-dihydro-2H-benzo[e][1,2]oxaborinine-8-carboxylic acid] | B (B represents an MIC between 1 and 16 μg/mL inclusive) | < 100 | < 100 | C (C represents an MIC of <1 μg/mL) | C (C represents an MIC of <1 μg/mL) | < 100 | 100 to 1000 | 100 to 1000 | C (C represents an MIC of <1 μg/mL) | B (B represents an MIC between 1 and 16 μg/mL inclusive) | B (B represents an MIC between 1 and 16 μg/mL inclusive) |
| NCc1cnn(CC(=O)N[C@H]2Cc3cccc(C(=O)O)c3OB2O)c1 [Example 68, (R)-3-(2-(4-(aminomethyl)-1H-pyrazol-1-yl)acetamido)-2-hydroxy-3,4-dihydro-2H-benzo[e][1,2]oxaborinine-8-carboxylic acid] | B (B represents an MIC between 1 and 16 μg/mL inclusive) | 100 to 1000 | < 100 | C (C represents an MIC of <1 μg/mL) | C (C represents an MIC of <1 μg/mL) | < 100 | 100 to 1000 | 100 to 1000 | C (C represents an MIC of <1 μg/mL) | C (C represents an MIC of <1 μg/mL) | B (B represents an MIC between 1 and 16 μg/mL inclusive) |
| NCCS(=O)(=O)NCc1cn(CC(=O)N[C@H]2Cc3cccc(C(=O)O)c3OB2O)nn1 [Example 69, (R)-3-(2-(4-(((2-aminoethyl)sulfonamido)methyl)-1H-1,2,3-triazol-1-yl)acetamido)-2-hydroxy-3,4-dihydro-2H-benzo[e][1,2]oxaborinine-8-carboxylic acid] | B (B represents an MIC between 1 and 16 μg/mL inclusive) | < 100 | < 100 | C (C represents an MIC of <1 μg/mL) | C (C represents an MIC of <1 μg/mL) | < 100 | 1000 to 10000 | 100 to 1000 | C (C represents an MIC of <1 μg/mL) | B (B represents an MIC between 1 and 16 μg/mL inclusive) | B (B represents an MIC between 1 and 16 μg/mL inclusive) |
